Experimental data reported in patent US7355047B2, “Substituted quinolone carboxylic acids, their derivatives, site of action, and uses thereof” (The Regents of the University of California, priority 2002, dated 2008).

What was measured:
[1] = system: BZ receptors; experiment: [3H]Flunitrazepam binding, rat cortex; details: 0.2 nM [3H]flunitrazepam, FIG. 6
Method: [^3H]Flunitrazepam binding: assays were carried out under identical conditions, using an identical tissue preparation, as those used in the [^35S]TBPS binding assays with the exception that 1 μM GABA was added to all samples instead of 5 μM GABA. [^3H]Flunitrazepam, 0.2 nM (75 Ci/mmol, New England Nuclear, Boston, Mass.) was used to label BZ sites. Non-specific binding is defined as binding in the presence of 1 μM clonazepam. The data were evaluated by nonlinear regression to obtain IC50 and EC50 values.

[2] = molecular target: T1, human GABAA receptors containing α1β2γ2 subunits (Homo sapiens, UniProt P14867+P18507+P47870); experiment: Electrophysiology Assay 2, GABAA subunit transfected HEK cells (α1β2γ2); format: cell-based; details: expressed human α1β2γ2 receptors; versus diazepam; FIG. 2
T1 construct: expressed in transfected cells; host or cells: HEK cells
Method: (§1) GABAA subunit transfected HEK cells are maintained at 37° C. and 5% CO2 using Dulbecco's Modified Eagle's Medium with L-glutamine and no sodium pyruvate (Irvine Scientific #9031, Irvine Calif.) and supplemented with 10% fetal bovine serum (Irvine Scientific #3000), 10 U/ml hygromycin B (Calbiochem #400051), and an antibiotic cocktail consisting of 100 μg/ml streptomycin sulfate, 0.25 μg/ml amphotericin B, 100 units/ml penicillin G (Gibco 15240-096, Gaithersburg Md.). Cells are passed by 2× wash with phosphate buffered saline (PBS) pH 7.4 and lifted using 1× trypsin/EDTA solution in PBS (0.5 mg/ml trypsin, 0.2 mg/ml EDTA, Irvine Scientific #9342) when confluency reaches ˜90%.
(§2) GABAA subunit transfected HEK cells are grown to ˜70% confluency on slide. Cells are transferred to a bath that is continuously perfused with extracellular saline. The extracellular medium contained 145 mM NaCl, 3 mM KCl, 1.5 mM CaCl2, 1 mM MgCl2, 5.5 mM d-glucose, and 10 mM HEPES, pH 7.4 at an osmolarity of 320-330 mosM. Recordings are performed at room temperature using the whole cell patch clamp technique. The patch pipette solution contained 147 mM N-methyl-D-glucamine hydrochloride, 5 mM CsCl, 5 mM K2ATP, 5 mM HEPES, 1 mM MgCl2, 0.1 mM CaCl2, and 1.1 mM EGTA, pH 7.2, at an osmolarity of 315 mosM. Pipette-to-bath resistance is typically 3-5 Mohms. […]

[3] = system: GABAA receptor complex (GRC); experiment: [35S]TBPS binding, rat cerebellum; details: 2 nM [35S]TBPS, 30 μM furosemide, FIG. 14
[4] = system: GABA-gated chloride channels; experiment: Electrophysiological Assay 1, whole cell patch-clamp of hippocampal neurons; format: cell-based; details: C3 5 μM; GABA 10 μM; embryonic rat hippocampal neurons; FIG. 1
Method: Pregnant Sprague-Dawley rats, incubating embryos of 17-19 days gestation, were killed by cervical dislocation. The embryos were removed under aseptic conditions and the brains quickly excised and placed in Hank's balanced salt solution (HBSS, Gibco) at ambient room temperature (18-22° C.). The hippocampi were dissected out and chopped into fragments (˜2 mm^3) and transferred into an enzyme solution containing (in mM): NaCl 116, KCl 5.4, NaHCO3 26, NaH2PO4 1, CaCl2 1.5, MgSO4 1, EDTA 0.5, glucose 25, cysteine 1, and papain 20 U/ml (Sigma) and incubated at 37° C., 5% CO2, 100% relative humidity for 1 hr. Tissue fragments were washed in HBSS containing 1 mg/ml of bovine serum albumin (BSA) and 1 mg/ml of ovomucoid (both Sigma). Tissue was transferred into a further 3-4 ml of this solution and gently triturated into a single cell suspension using a fire-polished Pasteur pipette. The single cell suspension was layered on to 5 ml HBSS containing 10 mg/ml of BSA and 10 mg/ml of ovomucoid and centrifuged at 100× g for 10 min. […]
Agonist evoked membrane currents were recorded from hippocampal neurons using the whole cell configuration of the patch-clamp technique. […] Agonist-evoked whole cell currents were measured at their peak. Responses in the presence of drugs expressed as the arithmetic mean ±SEM of responses in the absence (control) or drugs.

[5] = molecular target: T2, human GABAA receptors containing α2β2γ2 subunits (Homo sapiens, UniProt P18507+P47869+P47870); experiment: Electrophysiology Assay 2, GABAA subunit transfected HEK cells (α2β2γ2); format: cell-based; details: expressed human α2β2γ2 receptors; versus diazepam; FIG. 2
T2 construct: expressed in transfected cells; host or cells: HEK cells
Method: as §1, §2

T1 sequence (P14867 28-456): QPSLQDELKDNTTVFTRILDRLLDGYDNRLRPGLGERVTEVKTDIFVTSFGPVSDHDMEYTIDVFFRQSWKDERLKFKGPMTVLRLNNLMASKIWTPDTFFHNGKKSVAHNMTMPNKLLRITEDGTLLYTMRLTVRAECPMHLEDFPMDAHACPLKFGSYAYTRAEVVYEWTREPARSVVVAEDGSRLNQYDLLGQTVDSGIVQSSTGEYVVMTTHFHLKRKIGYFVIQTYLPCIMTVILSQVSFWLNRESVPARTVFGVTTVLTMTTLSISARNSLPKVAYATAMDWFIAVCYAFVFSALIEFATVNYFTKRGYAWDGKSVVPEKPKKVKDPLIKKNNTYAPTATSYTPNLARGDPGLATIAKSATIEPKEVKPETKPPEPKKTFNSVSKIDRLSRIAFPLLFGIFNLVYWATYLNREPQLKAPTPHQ
T1 sequence (P47870 25-512 limits assumed): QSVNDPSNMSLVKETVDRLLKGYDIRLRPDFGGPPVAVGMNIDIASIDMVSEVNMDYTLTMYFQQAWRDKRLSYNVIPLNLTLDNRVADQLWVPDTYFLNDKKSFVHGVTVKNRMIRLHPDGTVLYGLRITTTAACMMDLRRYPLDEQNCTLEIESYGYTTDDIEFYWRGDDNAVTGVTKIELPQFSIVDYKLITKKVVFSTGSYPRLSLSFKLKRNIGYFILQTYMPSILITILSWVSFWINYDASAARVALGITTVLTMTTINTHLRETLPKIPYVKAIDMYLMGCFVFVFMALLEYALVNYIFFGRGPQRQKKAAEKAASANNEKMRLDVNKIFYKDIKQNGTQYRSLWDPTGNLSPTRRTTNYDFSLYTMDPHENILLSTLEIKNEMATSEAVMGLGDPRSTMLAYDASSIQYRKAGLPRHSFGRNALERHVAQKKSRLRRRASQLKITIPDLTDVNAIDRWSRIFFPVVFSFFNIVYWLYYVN
T1 sequence (P18507 40-475): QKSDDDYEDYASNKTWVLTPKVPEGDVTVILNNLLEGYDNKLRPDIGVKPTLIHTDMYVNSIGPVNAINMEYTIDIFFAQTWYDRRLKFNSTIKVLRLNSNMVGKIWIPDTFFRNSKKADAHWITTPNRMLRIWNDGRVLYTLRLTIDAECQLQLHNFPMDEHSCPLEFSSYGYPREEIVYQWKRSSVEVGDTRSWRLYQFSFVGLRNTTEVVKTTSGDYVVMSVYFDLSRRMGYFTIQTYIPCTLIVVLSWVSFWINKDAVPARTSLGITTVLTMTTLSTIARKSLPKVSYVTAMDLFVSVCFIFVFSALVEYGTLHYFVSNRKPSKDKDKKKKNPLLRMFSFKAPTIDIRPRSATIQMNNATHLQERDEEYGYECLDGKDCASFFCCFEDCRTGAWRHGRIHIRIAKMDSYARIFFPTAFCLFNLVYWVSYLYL
T2 sequence (P47869 29-451): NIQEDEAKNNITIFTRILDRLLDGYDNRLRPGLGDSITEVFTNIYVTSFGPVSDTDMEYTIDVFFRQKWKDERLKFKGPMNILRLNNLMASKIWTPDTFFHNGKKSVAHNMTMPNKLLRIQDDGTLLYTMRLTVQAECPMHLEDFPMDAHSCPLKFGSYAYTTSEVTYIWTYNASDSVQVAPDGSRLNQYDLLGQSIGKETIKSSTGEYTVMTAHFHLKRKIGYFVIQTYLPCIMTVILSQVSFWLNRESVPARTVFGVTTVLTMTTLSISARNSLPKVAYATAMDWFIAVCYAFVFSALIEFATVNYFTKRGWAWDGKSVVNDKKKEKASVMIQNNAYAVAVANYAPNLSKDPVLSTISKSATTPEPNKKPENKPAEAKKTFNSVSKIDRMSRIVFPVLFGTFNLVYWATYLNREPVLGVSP
T2 sequence (P47870 25-512 limits assumed): as the sequence (P47870 25-512 limits assumed) above
T2 sequence (P18507 40-475): as the sequence (P18507 40-475) above

SMILES: CCn1cc(C(=O)O)c(=O)c2cc(NC3CCCc4ccccc43)c(Cl)cc21 (centres unmarked) [compound 3, 7-chloro-1-ethyl-6-(1,2,3,4-tetrahydronaphthyl-1-amino)-4-oxo-1,4-dihydroquinoline-3-carboxylic acid]
- effect on [3H]flunitrazepam binding to BZ receptors [1]: allosterically coupled to and does not act directly on the BZ receptor
- efficacy on GABA induced currents (IGABA) [2]: dose-dependent positive efficacy
- effect on [35S]TBPS binding in absence or presence of furosemide [3]: does not act directly at the same site on the GRC as the loop-diuretic furosemide
- potentiating effect on GABA induced chloride currents [4]: positive efficacy modulator of GABA-gated chloride channels
- efficacy on GABA induced currents (IGABA) [5]: dose-dependent positive efficacy
